Target: T1, hFASN enzyme (full length) (Homo sapiens, UniProt P49327)
T1 construct: 10 μL hFASN enzyme (full length, 300 ng, purified in house); made in house
Test: Fatty Acid Synthase (FASN) inhibition scintillation proximity assay
Assay type: biochemical
Details: for inhibition at 10 µM: read-out: Human FASN % inhibition @ 10 μM, 10 μM test compound; for IC50: read-out: Human FASN pIC50 (converted)
Procedure, shortened: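 Scintillation proximity format: in-house full-length enzyme, 300 ng per well, pH 7.5 phosphate/DTT buffer, ³H-acetyl-CoA and malonyl-CoA. Emission counted on LEADseeker at 610 nm at least 24 h after stopping.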

T1 sequence (P49327 whole entry): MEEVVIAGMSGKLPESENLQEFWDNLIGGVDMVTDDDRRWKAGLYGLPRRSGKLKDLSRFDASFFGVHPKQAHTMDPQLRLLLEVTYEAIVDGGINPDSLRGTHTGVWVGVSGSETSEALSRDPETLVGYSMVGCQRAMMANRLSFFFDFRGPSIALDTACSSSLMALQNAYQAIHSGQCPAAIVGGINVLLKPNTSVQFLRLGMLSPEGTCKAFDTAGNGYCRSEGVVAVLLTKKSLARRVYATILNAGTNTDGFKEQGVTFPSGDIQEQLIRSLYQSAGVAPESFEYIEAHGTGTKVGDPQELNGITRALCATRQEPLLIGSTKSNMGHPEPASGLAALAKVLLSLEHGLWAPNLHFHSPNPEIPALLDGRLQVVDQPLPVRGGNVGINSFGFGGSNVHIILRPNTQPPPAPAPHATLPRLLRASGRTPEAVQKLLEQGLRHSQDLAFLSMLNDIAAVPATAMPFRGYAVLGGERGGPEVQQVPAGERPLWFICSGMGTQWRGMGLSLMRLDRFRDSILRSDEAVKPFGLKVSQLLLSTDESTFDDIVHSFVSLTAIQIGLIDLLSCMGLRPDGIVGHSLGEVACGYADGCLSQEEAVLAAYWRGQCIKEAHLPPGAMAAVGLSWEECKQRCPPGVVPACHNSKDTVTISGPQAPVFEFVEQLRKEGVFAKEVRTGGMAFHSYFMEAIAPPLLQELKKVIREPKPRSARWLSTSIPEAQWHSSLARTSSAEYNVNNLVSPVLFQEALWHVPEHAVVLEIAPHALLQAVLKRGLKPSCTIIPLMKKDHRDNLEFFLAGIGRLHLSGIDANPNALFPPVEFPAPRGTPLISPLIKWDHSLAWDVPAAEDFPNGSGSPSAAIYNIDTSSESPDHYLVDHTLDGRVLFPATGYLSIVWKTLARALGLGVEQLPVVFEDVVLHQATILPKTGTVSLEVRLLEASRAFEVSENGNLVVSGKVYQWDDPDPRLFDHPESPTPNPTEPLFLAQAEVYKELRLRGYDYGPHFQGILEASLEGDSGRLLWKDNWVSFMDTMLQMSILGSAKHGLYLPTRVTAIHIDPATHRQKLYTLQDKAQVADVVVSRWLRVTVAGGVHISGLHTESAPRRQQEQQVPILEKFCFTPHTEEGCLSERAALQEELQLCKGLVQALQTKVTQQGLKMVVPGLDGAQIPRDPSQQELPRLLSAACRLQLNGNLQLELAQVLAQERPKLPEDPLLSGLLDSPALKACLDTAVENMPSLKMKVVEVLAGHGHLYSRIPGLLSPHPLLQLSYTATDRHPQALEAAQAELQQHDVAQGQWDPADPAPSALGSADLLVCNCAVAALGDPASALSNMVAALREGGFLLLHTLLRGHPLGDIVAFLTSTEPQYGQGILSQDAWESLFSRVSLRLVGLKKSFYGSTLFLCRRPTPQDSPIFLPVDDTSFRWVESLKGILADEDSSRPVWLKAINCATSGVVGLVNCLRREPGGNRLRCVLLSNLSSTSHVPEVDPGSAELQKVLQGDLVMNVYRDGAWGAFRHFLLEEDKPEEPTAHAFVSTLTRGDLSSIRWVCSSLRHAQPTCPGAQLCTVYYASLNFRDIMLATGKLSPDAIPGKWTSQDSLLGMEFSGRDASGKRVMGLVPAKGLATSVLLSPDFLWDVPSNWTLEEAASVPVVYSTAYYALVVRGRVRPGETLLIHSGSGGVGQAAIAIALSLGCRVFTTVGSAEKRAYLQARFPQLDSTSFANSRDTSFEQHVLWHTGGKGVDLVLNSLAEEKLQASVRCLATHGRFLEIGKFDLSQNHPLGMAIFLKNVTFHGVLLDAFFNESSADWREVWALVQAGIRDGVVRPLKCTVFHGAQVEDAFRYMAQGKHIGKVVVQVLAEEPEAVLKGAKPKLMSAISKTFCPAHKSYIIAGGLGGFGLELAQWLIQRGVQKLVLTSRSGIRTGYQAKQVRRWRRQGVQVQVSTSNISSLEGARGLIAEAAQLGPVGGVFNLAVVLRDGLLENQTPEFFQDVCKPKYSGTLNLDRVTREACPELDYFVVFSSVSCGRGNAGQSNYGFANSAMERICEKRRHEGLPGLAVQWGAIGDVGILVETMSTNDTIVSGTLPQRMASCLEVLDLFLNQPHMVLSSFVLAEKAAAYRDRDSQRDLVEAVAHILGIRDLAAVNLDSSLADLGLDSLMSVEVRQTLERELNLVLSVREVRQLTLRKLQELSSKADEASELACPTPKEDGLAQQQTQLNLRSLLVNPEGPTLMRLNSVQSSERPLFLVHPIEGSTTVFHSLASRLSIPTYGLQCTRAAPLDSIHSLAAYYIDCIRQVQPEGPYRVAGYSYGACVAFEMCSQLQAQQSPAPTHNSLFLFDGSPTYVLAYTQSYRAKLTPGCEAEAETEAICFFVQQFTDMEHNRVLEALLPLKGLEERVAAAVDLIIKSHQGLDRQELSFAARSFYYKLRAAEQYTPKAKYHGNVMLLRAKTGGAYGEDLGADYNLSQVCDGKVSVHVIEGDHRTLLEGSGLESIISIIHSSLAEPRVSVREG

SMILES	inhibition at 10 µM [%]	IC50 [nM]
CC(C)n1ccc2cc(-c3ccc(C4=NC5(CC5)C(=O)N4CC4CN(C(=O)C5CC5)C4)cc3)ccc21 [compound 508, 6-{[1-(Cyclopropylcarbonyl)azetidin-3-yl]methyl}-5-{4-[1-(1-methylethyl)-1H-indol-5-yl]phenyl}-4,6-diazaspiro[2.4]hept-4-en-7-one]	74	2880
O=C(C1CC1)N1CC(CN2C(=O)C3(CC3)N=C2c2ccc(-c3ccc(-n4ccnc4)nc3)cc2)C1 [compound 509, 6-{[1-(Cyclopropylcarbonyl)azetidin-3-yl]methyl}-5-{4-[6-(1H-imidazol-1-yl)pyridin-3-yl]phenyl}-4,6-diazaspiro[2.4]hept-4-en-7-one]	69	2000
Cc1ccc2ccc(-c3ccc(C4=NC5(CC5)C(=O)N4CC4CN(C(=O)C5CC5)C4)cc3)cc2n1 [compound 513, 6-{[1-(Cyclopropylcarbonyl)azetidin-3-yl]methyl}-5-[4-(2-methylquinolin-7-yl)phenyl]-4,6-diazaspiro[2.4]hept-4-en-7-one]	85	1230
CC(O)C(=O)N1CC[C@@H](CN2C(=O)C3(CCOCC3)N=C2c2ccc(-c3ccc(-c4cnn(C)c4)cc3)cc2)C1 (stereo partly drawn) [compound 656, 3-{[(3R)-1-(2-Hydroxypropanoyl)pyrrolidin-3-yl]methyl}-2-[4′-(1-methyl-1H-pyrazol-4-yl)biphenyl-4-yl]-8-oxa-1,3-diazaspiro[4.5]dec-1-en-4-one]	74	2000
COC(=O)N1CC[C@@H](CN2C(=O)C3(CCOCC3)N=C2c2ccc(-c3ccc(-c4cnn(C)c4)cc3)cc2)C1 [compound 658, Methyl (3S)-3-({2-[4′-(1-methyl-1H-pyrazol-4-yl)biphenyl-4-yl]-4-oxo-8-oxa-1,3-diazaspiro[4.5]dec-1-en-3-yl}methyl)pyrrolidin-1-carboxlate]	52	8710
Cn1cc(-c2ccc(-c3ccc(C4=NC5(CCOCC5)C(=O)N4C[C@@H]4CCN(C(=O)C(F)(F)F)C4)cc3)cc2)cn1 [compound 659, 2-[4′-(1-Methyl-1H-pyrazol-4-yl)biphenyl-4-yl]-3-{[(3R)-1-(trifluoroacetyl)pyrrolidin-3-yl]methyl}-8-oxa-1,3-diazaspiro[4.5]dec-1-en-4-one]	38	~8320

Further lines, results first:

inhibition at 10 µM [%]	IC50 [nM]	SMILES
80	1170	CCn1ncc2cc(-c3ccc(C4=NC5(CC5)C(=O)N4CC4CN(C(=O)C5CC5)C4)cc3)ccc21 [compound 505, 6-{[1-(Cyclopropylcarbonyl)azetidin-3-yl]methyl}-5-[4-(1-ethyl-1H-indazol-5-yl)phenyl]-4,6-diazaspiro[2.4]hept-4-en-7-one]
61	3390	CCn1cc2cc(-c3ccc(C4=NC5(CC5)C(=O)N4CC4CN(C(=O)C5CC5)C4)cc3)ccc2n1 [compound 506, 6-{[1-(Cyclopropylcarbonyl)azetidin-3-yl]methyl}-5-[4-(2-ethyl-2H-indazol-5-yl)phenyl]-4,6-diazaspiro[2.4]hept-4-en-7-one]
56	7410	Cn1nccc1-c1ccc(-c2ccc(C3=NC4(CC4)C(=O)N3CC3CN(C(=O)C4CC4)C3)cc2)cc1 [compound 514, 6-{[1-(Cyclopropylcarbonyl)azetidin-3-yl]methyl}-5-[4′-(1-methyl-1H-pyrazol-5-yl)biphenyl-4-yl]-4,6-diazaspiro[2.4]hept-4-en-7-one]
83	1170	CC(C)n1cc(-c2ccc(-c3ccc(C4=NC5(CC5)C(=O)N4CC4CN(C(=O)C5CC5)C4)cc3)cn2)cn1 [compound 516, 6-{[1-(Cyclopropylcarbonyl)azetidin-3-yl]methyl}-5-(4-{6-[1-(1-methylethyl)-1H-pyrazol-4-yl]pyridin-3-yl}phenyl)-4,6-diazaspiro[2.4]hept-4-en-7-one]
